Results reported in the NIST ThermoML archive (doi:10.1016/j.jct.2018.01.024).

Assay: mn = molality of the nth substance listed, in mol/kg
Details: Liquid

NC(N)=O [urea] + O
mass density [kg/m3]
Details | 288.15 K | 298.15 K | 308.15 K | 323.15 K | 333.15 K
101 kPa, Vibrating tube method, m1 = 0.093 | – | 998.52 | 995.45 | 989.4 | 984.53
101 kPa, Vibrating tube method, m1 = 0.1063 | – | 998.73 | 995.65 | 989.59 | 984.72
101 kPa, Vibrating tube method, m1 = 0.141 | – | 999.27 | 996.18 | 990.1 | 985.22
101 kPa, Vibrating tube method, m1 = 0.152 | – | 999.45 | 996.35 | 990.26 | 985.38
101 kPa, Vibrating tube method, m1 = 0.1809 | – | 999.9 | 996.79 | 990.68 | 985.79
101 kPa, Vibrating tube method, m1 = 0.2423 | – | 1000.86 | 997.71 | 991.57 | 986.66
101 kPa, Vibrating tube method, m1 = 0.4362 | – | 1003.84 | 1000.59 | 994.33 | 989.38
101 kPa, Vibrating tube method, m1 = 0.5644 | – | 1005.78 | 1002.47 | 996.13 | 991.15
101 kPa, Vibrating tube method, m1 = 1.008 | – | 1012.3 | 1008.78 | 1002.19 | 997.11
101 kPa, Vibrating tube method, m1 = 1.609 | – | 1020.67 | 1016.91 | 1010.03 | 1004.81
101 kPa, Vibrating tube method, m1 = 2.505 | – | 1032.29 | 1028.21 | 1020.95 | 1015.53
101 kPa, Vibrating tube method, m1 = 3.376 | – | 1042.7 | 1038.34 | 1030.77 | 1025.17
101 kPa, Vibrating tube method, m1 = 4.33 | – | 1053.2 | 1048.55 | 1040.72 | 1034.98
101 kPa, Vibrating tube method, m1 = 5.39 | – | 1063.84 | 1058.96 | 1050.87 | 1044.98
101 kPa, Vibrating tube method, m1 = 8 | – | 1086.63 | 1081.22 | 1072.6 | 1066.38
101 kPa, Vibrating tube method, m1 = 9.9 | – | 1100.56 | 1094.97 | 1086.08 | 1079.64
101 kPa, Vibrating tube method, m1 = 12.8 | – | 1118.82 | 1112.9 | 1103.59 | 1096.9
10000 kPa, Constant-volume piezometry, m1 = 0.1809 | – | 1004.31 | 1001.1 | 994.94 | –
10000 kPa, Constant-volume piezometry, m1 = 0.4362 | – | 1008.22 | 1004.89 | 998.57 | –
10000 kPa, Constant-volume piezometry, m1 = 0.5644 | – | 1010.14 | 1006.76 | 1000.36 | –
10000 kPa, Constant-volume piezometry, m1 = 1.609 | – | 1024.95 | 1021.13 | 1014.19 | –
10000 kPa, Constant-volume piezometry, m1 = 2.505 | – | 1036.5 | 1032.37 | 1025.05 | –
10000 kPa, Constant-volume piezometry, m1 = 3.376 | – | 1046.86 | 1042.44 | 1034.82 | –
10000 kPa, Constant-volume piezometry, m1 = 5.39 | – | 1067.88 | 1062.95 | 1054.83 | –
10000 kPa, Constant-volume piezometry, m1 = 8 | – | 1090.56 | 1085.13 | 1076.49 | –
10000 kPa, Constant-volume piezometry, m1 = 10.99 | – | 1111.68 | 1105.95 | 1096.87 | –
10000 kPa, Constant-volume piezometry, m1 = 12.8 | – | 1122.59 | 1116.69 | 1107.38 | –
25000 kPa, Constant-volume piezometry, m1 = 0.1809 | – | 1010.8 | 1007.46 | 1001.22 | –
25000 kPa, Constant-volume piezometry, m1 = 0.4362 | – | 1014.67 | 1011.22 | 1004.83 | –
25000 kPa, Constant-volume piezometry, m1 = 0.5644 | – | 1016.58 | 1013.08 | 1006.62 | –
25000 kPa, Constant-volume piezometry, m1 = 1.609 | – | 1031.23 | 1027.31 | 1020.35 | –
25000 kPa, Constant-volume piezometry, m1 = 2.505 | – | 1042.68 | 1038.45 | 1031.14 | –
25000 kPa, Constant-volume piezometry, m1 = 3.376 | – | 1052.93 | 1048.43 | 1040.83 | –
25000 kPa, Constant-volume piezometry, m1 = 5.39 | – | 1073.78 | 1068.78 | 1060.7 | –
25000 kPa, Constant-volume piezometry, m1 = 8 | – | 1096.33 | 1090.83 | 1082.18 | –
25000 kPa, Constant-volume piezometry, m1 = 10.99 | – | 1117.29 | 1111.57 | 1102.45 | –
25000 kPa, Constant-volume piezometry, m1 = 12.8 | – | 1128.17 | 1122.24 | 1112.95 | –
50000 kPa, Constant-volume piezometry, m1 = 0.1809 | – | 1021.19 | 1017.66 | 1011.26 | –
50000 kPa, Constant-volume piezometry, m1 = 0.4362 | – | 1025 | 1021.35 | 1014.82 | –
50000 kPa, Constant-volume piezometry, m1 = 0.5644 | – | 1026.87 | 1023.19 | 1016.57 | –
50000 kPa, Constant-volume piezometry, m1 = 1.609 | – | 1041.28 | 1037.21 | 1030.14 | –
50000 kPa, Constant-volume piezometry, m1 = 2.505 | – | 1052.51 | 1048.14 | 1040.78 | –
50000 kPa, Constant-volume piezometry, m1 = 3.376 | – | 1062.57 | 1057.95 | 1050.36 | –
50000 kPa, Constant-volume piezometry, m1 = 5.39 | – | 1083.08 | 1078.02 | 1069.99 | –
50000 kPa, Constant-volume piezometry, m1 = 8 | – | 1105.37 | 1099.83 | 1091.23 | –
50000 kPa, Constant-volume piezometry, m1 = 10.99 | – | 1126.18 | 1120.31 | 1111.32 | –
50000 kPa, Constant-volume piezometry, m1 = 12.8 | – | 1136.9 | 1130.92 | 1121.73 | –
75000 kPa, Constant-volume piezometry, m1 = 0.1809 | – | 1031.09 | 1027.35 | 1020.8 | –
75000 kPa, Constant-volume piezometry, m1 = 0.4362 | – | 1034.82 | 1030.99 | 1024.31 | –
75000 kPa, Constant-volume piezometry, m1 = 0.5644 | – | 1036.66 | 1032.8 | 1026.04 | –
75000 kPa, Constant-volume piezometry, m1 = 1.609 | – | 1050.81 | 1046.61 | 1039.38 | –
75000 kPa, Constant-volume piezometry, m1 = 2.505 | – | 1061.84 | 1057.37 | 1049.87 | –
75000 kPa, Constant-volume piezometry, m1 = 3.376 | – | 1071.73 | 1067.04 | 1059.32 | –
75000 kPa, Constant-volume piezometry, m1 = 5.39 | – | 1091.95 | 1086.84 | 1078.73 | –
75000 kPa, Constant-volume piezometry, m1 = 8 | – | 1113.92 | 1108.4 | 1099.84 | –
75000 kPa, Constant-volume piezometry, m1 = 10.99 | – | 1134.57 | 1128.64 | 1119.74 | –
75000 kPa, Constant-volume piezometry, m1 = 12.8 | – | 1145.19 | 1139.16 | 1130.01 | –
100000 kPa, Constant-volume piezometry, m1 = 0.1809 | – | 1040.52 | 1036.61 | 1029.92 | –
100000 kPa, Constant-volume piezometry, m1 = 0.4362 | – | 1044.19 | 1040.2 | 1033.37 | –
100000 kPa, Constant-volume piezometry, m1 = 0.5644 | 1049.66 | 1046 | 1041.98 | 1035.08 | –
100000 kPa, Constant-volume piezometry, m1 = 1.609 | 1063.93 | 1059.92 | 1055.64 | 1048.25 | –
100000 kPa, Constant-volume piezometry, m1 = 2.505 | 1075.04 | 1070.84 | 1066.32 | 1058.62 | –
100000 kPa, Constant-volume piezometry, m1 = 3.376 | 1085.01 | 1080.63 | 1075.91 | 1067.97 | –
100000 kPa, Constant-volume piezometry, m1 = 5.39 | 1105.48 | 1100.6 | 1095.48 | 1087.2 | –
100000 kPa, Constant-volume piezometry, m1 = 8 | 1127.8 | 1122.4 | 1116.79 | 1108.07 | –
100000 kPa, Constant-volume piezometry, m1 = 10.99 | 1148.53 | 1142.75 | 1136.92 | 1127.82 | –
100000 kPa, Constant-volume piezometry, m1 = 12.8 | 1159.2 | 1153.24 | 1147.3 | 1138.03 | –
